# Assay results published in patent US11976280B2, “SMAC/Diablo inhibitors useful for treating cancer” (THE NATIONAL INSTITUTE FOR BIOTECHNOLOGY IN THE NEGEV LTD., priority 2017, dated 2024).
# d = 2'-deoxy (DNA); r = 2'-OH (RNA)
# System: A549 cells-derived tumors
# Test: Next-generation sequencing (NGS) of si-NT- and si-hSMAC-A-treated tumors
# Assay type: in vivo, human
# Method: Libraries were prepared by the INCPM-RNA-seq unit (Weizmann Institute, Israel). Briefly, polyA fraction (mRNA) was purified from 500 ng of total RNA, isolated as above, followed by fragmentation and generation of double stranded cDNA. End repair, a base addition, adapter ligation and PCR amplification steps were performed according to established methods. Libraries were evaluated by Qubit and TapeStation. Sequencing libraries were constructed with barcodes to allow multiplexing of 20 samples in one lane. Between 22 and 26 million reads single-end 60-bp reads were sequenced per sample on Illumina HiSeq 2500 V4 instrument.
# Bioinformatics analyses were carried out at the Bioinformatics Core Facility at the National Institute for Biotechnology in the Negev, Ben-Gurion University. Raw sequence reads were assessed for quality using FASTQC and further trimmed for removal of remaining adaptors and low quality bases using Trimmomatic. The trimmed reads from each sample were separately aligned to the human and mouse genomes (GRCh38 and GRCm38.75, respectively) using STAR v2.3.0 with default settings. An average of 23.7±0.8 million reads per sample was obtained. Of these, an average of 13, 2.6, 7.8 and 0.3 million reads were mapped to human only, mouse only, both human and mouse, and none of them, respectively. After rejection of multi-mapped reads, a total of 11.5±2.5 human-specific, uniquely mapped reads, and 2.3±1.7 mouse-specific, uniquely mapped reads were subjected for further analysis. The number of aligned reads per gene per sample were counted using HTSeq count with “intersection-nonempty” (to handle reads that overlap with more than one gene) and “no stranded” as parameters. The other parameters were set to their default. Normalization and statistical analysis for differential expression were carried out using DESeq2 v1.6.3. Fold change values were converted to linear scale, with a minus sign indicating down-regulation.
# Differentially expressed genes were defined as those having a p-value<0.05, and linear fold change>1.5 and <−1.5. Functional analysis was performed using the Gene Ontology system, DAVID and Expander software tools.
# NGS was used to investigate changes in patterns of gene expression in si-NT-TTs and si-hSMAC-A-TTs (FIG. 10, and Tables 3-5). […] As si-hSMAC is human-specific, any effect on mouse gene expression must be mediated by the human tumor cells.
# The major functional groups were changes were seen are presented below.
# [1] = vs si-NT-TTs, ENDOPLASMIC AND GOLGI LUMENS
# [2] = vs si-NT-TTs, ENDOPLASMIC AND GOLGI LUMENS / METABOLISM RELATED ENZYMES
# [3] = vs si-NT-TTs, ER AND MITOCHONDRIA
# [4] = vs si-NT-TTs, EXTRACELLULAR MATRIX
substance,measurement,setting,value
"si-hSMAC-A: siRNA to human SMAC/Diablo; sense 5′AAGCGGUGUUUCUCAGAAUUGtt3′ (SEQ ID NO:20), antisense 5′AACAAUUCUGAGAAACCCGCtt3′ (SEQ ID NO:21) (sense AAGCGGUGUUUCUCAGAAUUGTT; antisense AACAAUUCUGAGAAACCCGCTT; sense: sugars from the 5' end r21 d2, backbone not given here; antisense: sugars from the 5' end r20 d2, backbone not given here)","Fold change, ACKR3-atypical chemokine receptor 3 gene expression","NGS, si-hSMAC-A- vs si-NT-treated A549 cells-derived tumors, gene ACKR3",−2.2
same,"Fold change, C5-complement component 5 gene expression","NGS, si-hSMAC-A- vs si-NT-treated A549 cells-derived tumors, gene C5",−1.7
same,"Fold change, C5AR1 (CD88)-complement component 5a receptor 1 gene expression","NGS, si-hSMAC-A- vs si-NT-treated A549 cells-derived tumors, gene C5AR1",−1.7
same,"Fold change, CCL24-chemokine (C-C motif) ligand 24 gene expression","NGS, si-hSMAC-A- vs si-NT-treated A549 cells-derived tumors, gene CCL24",1.9
same,"Fold change, CCL28-chemokine (C-C motif) ligand 28 gene expression","NGS, si-hSMAC-A- vs si-NT-treated A549 cells-derived tumors, gene CCL28",1.9
same,"Fold change, CD274-(PD-L1) molecule gene expression","NGS, si-hSMAC-A- vs si-NT-treated A549 cells-derived tumors, gene CD274",−1.9
same,"Fold change, CREB3L3-CAMP responsive element binding protein 3-like 3 gene expression","NGS, si-hSMAC-A- vs si-NT-treated A549 cells-derived tumors, gene CREB3L3",2.0
same,"Fold change, CX3CL1-chemokine (C-X3-C motif) ligand 1 gene expression","NGS, si-hSMAC-A- vs si-NT-treated A549 cells-derived tumors, gene CX3CL1",1.6
same,"Fold change, GAS6-growth arrest-specific 6 gene expression","NGS, si-hSMAC-A- vs si-NT-treated A549 cells-derived tumors, gene GAS6",−1.7
same,"Fold change, IL1R1-interleukin 1 receptor, type I gene expression","NGS, si-hSMAC-A- vs si-NT-treated A549 cells-derived tumors, gene IL1R1",−1.6
same,"Fold change, IL6-interleukin 6 gene expression","NGS, si-hSMAC-A- vs si-NT-treated A549 cells-derived tumors, gene IL6",−2.5
same,"Fold change, IL18BP-interleukin 18 binding protein gene expression","NGS, si-hSMAC-A- vs si-NT-treated A549 cells-derived tumors, gene IL18BP",−1.6
same,"Fold change, IL27RA-interleukin 27 receptor, alpha gene expression","NGS, si-hSMAC-A- vs si-NT-treated A549 cells-derived tumors, gene IL27RA",−1.6
same,"Fold change, IRF6-interferon regulatory factor 6 gene expression","NGS, si-hSMAC-A- vs si-NT-treated A549 cells-derived tumors, gene IRF6",1.6
same,"Fold change, LBP-lipopolysaccharide binding protein gene expression","NGS, si-hSMAC-A- vs si-NT-treated A549 cells-derived tumors, gene LBP",−2.1
same,"Fold change, MRC2 (ENDO180)-mannose receptor, C type 2 gene expression","NGS, si-hSMAC-A- vs si-NT-treated A549 cells-derived tumors, gene MRC2",−1.7
same,"Fold change, OSMR-oncostatin M receptor gene expression","NGS, si-hSMAC-A- vs si-NT-treated A549 cells-derived tumors, gene OSMR",−1.7
same,"Fold change, PROC-protein C gene expression","NGS, si-hSMAC-A- vs si-NT-treated A549 cells-derived tumors, gene PROC",1.8
same,"Fold change, PTGS2 (Cox-2)-prostaglandin-endoperoxide synthase 2 gene expression","NGS, si-hSMAC-A- vs si-NT-treated A549 cells-derived tumors, gene PTGS2",−1.8
same,"Fold change, TLR3-toll-like receptor 3 gene expression","NGS, si-hSMAC-A- vs si-NT-treated A549 cells-derived tumors, gene TLR3",−1.7
same,"Fold change, TNFAIP6 (TSG6) gene expression","NGS, si-hSMAC-A- vs si-NT-treated A549 cells-derived tumors, gene TNFAIP6",−1.6
same,"Fold change, TNFSF14 (LIGHT) gene expression","NGS, si-hSMAC-A- vs si-NT-treated A549 cells-derived tumors, gene TNFSF14",−1.8
same,expression of genes associated with inflammation and the tumor microenvironment,in vivo,reduction
same,number of human genes down-regulated,in vivo,~242
same,number of human genes up-regulated,in vivo,about 186
same,Fold change ACKR3,"vs si-NT-TTs, CELL MEMBRANE",−2.2 fold
same,Fold change BAMBI,"vs si-NT-TTs, CELL MEMBRANE",1.7 fold
same,Fold change C5AR1 (CD88),"vs si-NT-TTs, CELL MEMBRANE",−1.7 fold
same,Fold change CDH3,"vs si-NT-TTs, CELL MEMBRANE",1.7 fold
same,Fold change CLDN4,"vs si-NT-TTs, CELL MEMBRANE",2.4 fold
same,Fold change CLMP,"vs si-NT-TTs, CELL MEMBRANE",−1.7 fold
same,Fold change CNTNAP2,"vs si-NT-TTs, CELL MEMBRANE",−1.8 fold
same,Fold change DSC2,"vs si-NT-TTs, CELL MEMBRANE",1.6 fold
same,Fold change EMP1,"vs si-NT-TTs, CELL MEMBRANE",1.8 fold
same,Fold change ITGA1 (CD49a),"vs si-NT-TTs, CELL MEMBRANE",−1.9 fold
same,Fold change TNS1,"vs si-NT-TTs, CELL MEMBRANE",−1.6 fold
same,Fold change ABCC6,[1],−2.3 fold
same,Fold change AGR3,[1],4.1 fold
same,Fold change AHCYL2,[1],−1.7 fold
same,Fold change BACE1,[1],−1.5 fold
same,Fold change CEMIP,[1],−3.6 fold
same,Fold change CHERP,[1],−1.7 fold
same,Fold change CLGN,[1],−1.9 fold
same,Fold change COX10-AS1,[1],−2.1 fold
same,Fold change CYP26B1,[1],−1.8 fold
same,Fold change FAM20A,[1],−4.4 fold
same,Fold change FOXRED2,[1],−1.5 fold
same,Fold change ITPR1,[1],−1.7 fold
same,Fold change NCK2,[1],2.0 fold
same,Fold change P4HA3,[1],−1.9 fold
same,Fold change PCSK5,[1],−2.3 fold
same,Fold change PPAP2B,[1],−1.8 fold
same,Fold change PTGS2 (COX-2),[1],−1.8 fold
same,Fold change RIC3,[1],−2.7 fold
same,Fold change RYR1,[1],2.5 fold
same,Fold change SEC61G,[1],1.8 fold
same,Fold change TM4SF20,[1],−1.7 fold
same,Fold change TMEM147-AS,[1],−1.7 fold
same,Fold change UGT1A7,[1],−3.5 fold
same,Fold change UGT1A9,[1],−17.2 fold
same,Fold change ACAD10,[2],−1.7 fold
same,Fold change H6PD (GDH),[2],−1.6 fold
same,Fold change KLK6,[3],25.83 fold
same,Fold change SGK1,[3],−1.7 fold
same,Fold change CD9 (TSPAN29),"vs si-NT-TTs, EXOSOMES",1.5 fold
same,Fold change CD63 (TSPAN30),"vs si-NT-TTs, EXOSOMES",3.5 fold
same,Fold change CD274 (PD-L1),"vs si-NT-TTs, EXOSOMES",−1.9 fold
same,Fold change CEACAM5 (CD66e),"vs si-NT-TTs, EXOSOMES",2.2 fold
same,Fold change EPCAM,"vs si-NT-TTs, EXOSOMES",2.7 fold
same,Fold change FSTL1,"vs si-NT-TTs, EXOSOMES",−1.8 fold
same,Fold change GAS6,"vs si-NT-TTs, EXOSOMES",−1.7 fold
same,Fold change GP1BA,"vs si-NT-TTs, EXOSOMES",−1.7 fold
same,Fold change HSPG2 (Perlecan),"vs si-NT-TTs, EXOSOMES",−1.7 fold
same,Fold change IGFBP7,"vs si-NT-TTs, EXOSOMES",−1.8 fold
same,Fold change NID2,"vs si-NT-TTs, EXOSOMES",−2.1 fold
same,Fold change RAB17,"vs si-NT-TTs, EXOSOMES",1.9 fold
same,Fold change TSPAN8,"vs si-NT-TTs, EXOSOMES",1.6 fold
same,Fold change TSPAN13,"vs si-NT-TTs, EXOSOMES",1.8 fold
same,Fold change VAMP8,"vs si-NT-TTs, EXOSOMES",1.9 fold
same,Fold change CANT1,"vs si-NT-TTs, EXOSOMES / METABOLISM RELATED ENZYMES",1.5 fold
same,Fold change ABI3BP (TARSH),[4],−2.4 fold
same,Fold change ADAMTS9,[4],−2.2 fold
same,Fold change BMP2,[4],−1.8 fold
same,Fold change BMPER,[4],−1.7 fold
same,Fold change CCBE1,[4],−2.7 fold
same,Fold change COL4A1,[4],−2.2 fold
same,Fold change COL4A2,[4],−1.8 fold
same,Fold change COL5A1,[4],−1.5 fold
same,Fold change COL12A1,[4],−1.5 fold
same,Fold change COL17A1 (BP180),[4],2.1 fold
same,Fold change EDIL3 (Del1),[4],−2.5 fold
